Assay results: PubChem BioAssay (NCI)
Values joined by “and” are separate entries in the source; they are usually repeats but may differ in a detail not shown here. Equal values may be shown once.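 Dose response: 5 concentrations. Exposure: 48 h. Format: 96-well plates. Endpoint: linear interpolation; highest concentration if not reached. Abbreviation: GI50, concentration required for 50% inhibition of growth. TGI is the concentration that stops growth completely.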

Key:
Experiment in all cases: NCI-60 cell line screen, 48 h
[1] = tested on: A549 NSCLC
[2] = tested on: CCRF-CEM leukemia
[3] = tested on: SK-MEL-2 melanoma
[4] = tested on: SW-620 colon
[5] = tested on: IGROV1 ovarian
[6] = tested on: HL-60(TB) leukemia
[7] = tested on: SK-OV-3 ovarian
[8] = tested on: SK-MEL-28 melanoma
[9] = tested on: HT29 colon
[10] = tested on: NCI-H522 lung
[11] = tested on: RPMI-8226 leukemia
[12] = tested on: HOP-62 NSCLC
[13] = tested on: SNB-19 CNS
[14] = tested on: ACHN renal

| SMILES | TGI [1] | TGI [2] | TGI [3] | TGI [4] | TGI [5] | TGI [6] | TGI [7] | TGI [8] | TGI [9] | TGI [10] | TGI [11] | TGI [12] | TGI [13] | TGI [14] | GI50 [14] | GI50 [3] | GI50 [6] | GI50 [7] | GI50 [8] | GI50 [12] |
| --- | --- | --- | --- | --- | --- | --- | --- | --- | --- | --- | --- | --- | --- | --- | --- | --- | --- | --- | --- | --- |
| c1ccc(C(c2ccccc2)[P+](c2ccccc2)(c2ccccc2)c2ccccc2)cc1 | 14.6 µM | 14.6 µM | 1.25 µM | 13.2 µM | 8.64 µM | 4.05 µM | 2.68 µM | 5.18 µM | 6.73 µM | 1.14 µM | 1.28 µM | 6.63 µM | 10 µM |  |  |  |  |  |  |  |
| C=CCOC1OC(CS(=O)(=O)O)C(O)C(O)C1O (configuration not stated) |  |  | > 100 µM | > 100 µM | > 100 µM | > 100 µM | > 100 µM | > 100 µM | > 100 µM |  | > 100 µM | > 100 µM | > 100 µM |  |  |  |  |  |  |  |
| O=C(O)CSCC(=O)O | > 100 µM | > 100 µM | > 100 µM | > 100 µM | > 100 µM | > 100 µM |  | > 100 µM | > 100 µM | > 100 µM |  | > 100 µM | > 100 µM | > 100 µM |  |  |  |  |  |  |
| COc1cc(-c2c(C#N)c(N)c(C#N)c3c2COc2ccccc2-3)cc(OC)c1OC | > 100 µM | > 100 µM | > 77.6 µM | > 100 µM | > 79.6 µM | > 100 µM | 32.4 µM | > 100 µM | > 100 µM | > 100 µM | > 100 µM | 19 µM | > 43.5 µM | > 100 µM |  |  |  |  |  |  |
| CS/C(=N\C(=S)Nc1ccccc1)Nc1ccccc1 | 59.2 µM |  | 56.4 µM | > 100 µM | 97.6 µM | 39.2 µM | 58.9 µM | > 100 µM | 33.1 µM | 38 µM | 62.1 µM | > 100 µM | 94.6 µM | 70.7 µM |  |  |  |  |  |  |
| COc1ccc(C2C(=O)C(Cl)N2Nc2nc(C)cc(=O)[nH]2)cc1OC (configuration not stated) | > 100 µM | 55.1 µM | > 100 µM | > 100 µM | 70.2 µM | 37.6 µM |  | > 100 µM | > 100 µM |  | 55.9 µM | > 100 µM | > 100 µM | > 100 µM |  |  |  |  |  |  |
| FC(F)(F)C(C1=NC(C(F)(F)F)(C(F)(F)F)N=C(N2CCOCC2)O1)C(F)(F)F | 62.8 µM | 25.3 µM | 57.8 µM | 41.9 µM | 57.1 µM | 22 µM | > 100 µM | 52.4 µM | 57.8 µM | 46.2 µM | 57.7 µM |  | > 100 µM | 49.3 µM |  |  |  |  |  |  |
| CCCCCCCCCCCCCCCC[N+](C)(C)CCN(Cc1ccc(OC)cc1)c1ncccn1 |  |  | 6.95 µM |  |  | 3.99 µM and 4.79 µM | 7.24 µM | 4.5 µM |  |  |  | 2.95 µM |  | 32.9 µM | 8.54 µM | 2.88 µM | 1.4 µM and 0.661 µM | 2.24 µM | 2.1 µM | 1.54 µM |
| COc1ccccc1N1C(Cl)C(=O)C1c1c[nH]c2ccccc12 (configuration not stated) | > 100 µM | > 100 µM | > 100 µM | > 100 µM | > 100 µM | > 100 µM | > 100 µM | > 100 µM | > 100 µM | > 100 µM | > 100 µM | > 100 µM | > 100 µM |  |  |  |  |  |  |  |
